# Assays:
# Type in all cases: cell-based
# [1] = tested on: SDF-1α induced Ca flux in SUP-T1 cells; assay: Inhibition of chemokine (SDF-1α) induced Ca flux measured on a FLIPR; conditions: Homo sapiens, at 20 μg/mL
# Protocol: Inhibition of Chemokine Induced Ca Flux Measured on a FLIPR (Molecular Devices) Loading dye: Fluo-3, AM (Molecular Probes F-1241) is dissolved in anhydrous DMSO and stored frozen in aliquots. To increase the solubility of the dye in the loading medium, 10% (w/v) pluronic acid (Molecular Probes F-127) is added to the Fluo-3 stock solution immediately before use. buffer+0.2% BSA, pH 7.4. HBSS 10× [(w/o phenol red and sodium bicarbonate (Gibco 14 065-049)]; Hepes buffer 1M (Gibco 15 630-056), BSA (Sigma A3675). The flux buffer is vacuum-filtered and stored refrigerated for a maximum of 5 days. Before use in the experiment, the buffer is warmed at 37° C. in a waterbath. The test compounds were diluted in flux buffer at the desired concentration and added to 4 wells of a black microplate (4 parallel measurements per compound). The following control wells were used: 100% response control (no inhibition), flux buffer was added; 100% inhibition control: chemokine was added at 5-times the concentration required to induce a Ca flux. The chemokines are diluted in flux buffer to concentrations that are 4-fold higher than the desired concentrations required for stimulation of the cells (i.e. 2.5 nM for SDF-1α and 0.6 nM for RANTES). The chemokines were added to untreated 96-well Sero well compound plates (International Medical, Sterilin code 611F96). In the negative control well's (baseline monitoring), flux buffer is added instead of chemokine. As a positive control to check for dye loading efficiency, 20 μM digitonin (final concentration) was also included. The agonist plate was incubated in the FLIPR (37° C.) for 15-30 min. Cell Loading Protocol for Measuring Inhibition of SDF-1α Induced Ca Flux in SUP-T1 Cells. SUP-T1 cells were centrifuged at room temperature (RT) and re-suspended in loading medium (RPMI-1640 containing 2% FBS and 4 μM Fluo-3, AM). The cells were incubate at room temperature for 45 min. then washed twice in flux buffer then incubated in flux buffer at room temperature for 10 min. The cells were centrifuged and re-suspended in flux buffer at a density of 3×10^6 cells per mL. A 100 μL aliquot of the cell suspension (3×10^5 cells) was added to each well of a black microplate (Costar 3603), which already contains 50 μL of a solution of the test compound (at concentrations that are 3-fold higher than the desired final compound concentrations). The microplate is then gently centrifuged at room temperature. Homogeneous spreading of the cells on the bottom of the microplate wells was then confirmed with a microscope and the microplate was incubated in the FLIPR (37° C.) for 10 min. prior to testing. The FLIPR settings (camera exposure time and laser power) are adjusted to obtain initial fluorescence values between 8,000 and 10,000 units. After monitoring a 20 second-baseline, the agonist (chemokine) (50 μL) is added by automatic pipettor with black pipette tips. Fluorescence is measured simultaneously in all wells of the microplate every 2 seconds (first 2 min) and thereafter every 6 seconds (additional 2 min). The average ca-flux measured in each set of 4 identical wells (one test compound) was calculated by the FLIPR software. The compounds of the current invention are tested for inhibition of SDF-1α induced Ca flux in SUP-T1 cells using the method described above.
# [2] = tested on: HIV-1 NL4.3 (or IIIB, CXCR4 using); assay: Inhibition of HIV-1 (NL4.3) replication in MT-4 cells; conditions: Human immunodeficiency virus 1, IIIB, MT4, 120 h, MTT viability after 5 days
# Protocol: Assay for Inhibition of HIV-1 (NL4.3) Replication in MT-4 Cells. Inhibition of HIV-1 NL4.3 (or IIIB, CXCR4 using) replication assays were performed as previously described (Bridger et al. J. Med. Chem. 1999, 42, 3971-3981; De […] et al. Proc. Natl. Acad. Sci, 1992, 89, 5286-5290; De […] et al. Antimicrob. Agents Chemother. 1994, 38, 668-674; Bridger et al. J. Med. Chem. 1995, 38, 366-378; Schols et al. J. Exp. Med., 1997, 186, 1383-1388). Anti-HIV activity and cytotoxicity measurements were carried out in parallel. They were based on the viability of MT-4 cells that had been infected with HIV in the presence of various concentrations of the test compounds. After the MT-4 cells were allowed to proliferate for 5 days, the number of viable cells was quantified by a tetrazolium-based colorimetric 3-(4,5-dimethylthiazol-2-yl)-2,5-diphenyltetrazolium bromide (MTT) procedure in 96-well microtrays. In all of these assays, viral input (viral multiplicity of infection, MOI) was 0.01, or 100 times the 50% cell culture infective dose (CCID50). The EC50 was defined as the concentration required to protect 50% of the virus-infected cells against viral cytopathicity. When compounds of the current invention are tested for inhibition of HIV-1 NL4.3 or IIIB replication in MT-4 cells, all show inhibition.
# HIV-1 BaL (CCR5 using) = assay: Inhibition of HIV-1 (BaL) replication in PBMC's; conditions: Human immunodeficiency virus 1, BAL, PHA-stimulated PBMC's, viral p24 antigen expression
# Protocol: Assay for Inhibition of HIV-1 (BaL) Replication in PBMC's. When compounds of the current invention are tested for inhibition of HIV-1 BaL (CCR5 using) replication in PHA-stimulated PBMC's (peripheral blood mononuclear cells) using viral p24 antigen expression (De […] et al. Antimicrob. Agents Chemother. 1994, 38, 668-674; Schols et al. J. Exp. Med., 1997, 186, 1383-1388), all show inhibition.
Structure (SMILES),EC50 [2] [µg/mL],EC50 (HIV-1 BaL (CCR5 using)) [µg/mL],inhibition at 20 µg/mL [1] [%]
"O=C(NCc1ccc(CN(Cc2nc3ccccc3[nH]2)C2CCCc3cccnc32)cc1)c1ccccn1 (centres unmarked) [Example 17, Pyridine-2-carboxylic Acid 4-{[(1 H-benzimidazol-2-ylmethyl)-(5,6,7,8-tetrahydro-quinolin-8-yl)-amino]-methyl}-benzylamide]",< 20,< 20,> 20
"O=S(=O)(NCc1ccccn1)c1ccc(CN(Cc2nc3ccccc3[nH]2)C2CCCc3cccnc32)cc1 (centres unmarked) [Example 11, 4-{[(1 H-Benzimidazol-2-ylmethyl)-(5,6,7,8-tetrahydro-quinolin-8-yl)-amino]-methyl}-N-pyridin-2-ylmethyl-benzenesulfonamide]",< 20,< 20,> 20
"O=C(Nc1ccccn1)c1ccc(CN(Cc2nc3ccccc3[nH]2)C2CCCc3cccnc32)cc1 (centres unmarked) [Example 2, 4-{[(1 H-Benzimidazol-2-ylmethyl)-(5,6,7,8-tetrahydroquinolin-8-yl)amino]-methyl}-N-pyridin-2-yl-benzamide]",< 20,< 20,> 20
"O=C(NCc1ccc(CNC2CCCc3cccnc32)cc1)c1ccccn1 (centres unmarked) [Example 16, Pyridine-2-carboxylic acid 4-[(5,6,7,8-tetrahydro-quinolin-8-ylamino)-methyl]-benzeylamide]",,< 20,
"O=C(NCc1ccccn1)c1ccc(CN(Cc2nc3ccccc3[nH]2)C2CCCc3cccnc32)cc1 (centres unmarked) [Example 4, 4-{[(1 H-Benzimidazol-2-ylmethyl)-(5,6,7,8-tetrahydro-quinolin-8-yl)-amino]-methyl}-N-pyridin-2-ylmethyl-benzamide]",< 20,< 20,> 20

# The next lines start with results.
EC50 [2] [µg/mL],EC50 (HIV-1 BaL (CCR5 using)) [µg/mL],Structure (SMILES),inhibition at 20 µg/mL [1] [%]
< 20,< 20,"O=S(=O)(NCc1ccc(CN(Cc2nc3ccccc3[nH]2)C2CCCc3cccnc32)cc1)c1ccccn1 (centres unmarked) [Example 48, Pyridine-2-sulfonic Acid 4-{[(1 H-benzoimidazol-2-ylmethyl)-(5,6,7,8-tetrahydro-quinolin-8-yl)-amino]-methyl}-benzylamide]",> 20
< 20,< 20,"O=S(=O)(Nc1ccc(CN(Cc2nc3ccccc3[nH]2)C2CCCc3cccnc32)cc1)c1ccccn1 (centres unmarked) [Example 53, Pyridine-2-sulfonic acid (4-{[(1H-benzoimidazol-2-ylmethyl)-(5,6,7,8-tetrahydro-quinolin-8-yl)-amino]-methyl}-phenyl)-amide]",
< 20,,"O=C(Nc1ccc(CN(Cc2nc3ccccc3[nH]2)C2CCCc3cccnc32)cc1)c1ccccn1 (centres unmarked) [Example 45, pyridine-2-carboxylic acid (4-{[(1 H-benzoimidazol-2-ylmethyl)-(5,6,7,8-tetrahydro-quinolin-8-yl)-amino]-methyl}-phenyl)-amide]",> 20

# Source: US6835731B2, “Chemokine receptor binding heterocyclic compounds” (AnorMED, Inc., priority 2000, dated 2004)
